Assay results from patent US8815937B2, “Lipoyl compounds and their use for treating ischemic injury” (Ischemix LLC, priority 2010, dated 2014).

Assays:
[1] = tested on: rat model of MI/AR injury (myocardial ischemia-reperfusion injury); test: Rat model of MI/AR injury (LCA ligation, myocardial ischemia-reperfusion); type: in vivo; settings: for MI/AR Reduction (%): male Sprague-Dawley rats, compound given 15 minutes prior to ligation, intravenous, doses ranged 1-20 mg/kg, 24 hours after reperfusion, relative to vehicle controls; for Reduction in Cardiac injury: LCA rat model, procedure of Example 2
Source text: A rat model of MI/AR injury was used as an in vivo screen to determine if the compounds of Tables 1-5 were cardio-protective (e.g., against myocardial ischemia-reperfusion injury). This model is analogous to the ischemia-reperfusion injury observed in cardiac patients following coronary occlusions and cardiac surgery procedures, such as coronary artery bypass grafting (CABG) (Matsui, T., Tao, J., del Monte, F., Lee, K.-H. et al., Akt Activation Preserves Cardiac Function and Prevents Injury After Transient Cardiac Ischemia In vivo, Circulation 2001, 104:330, the teachings of which are incorporated herein by reference in their entirety).
The circumflex branch of the left coronary artery (LCA) was ligated temporarily to induce regional ischemia in the left ventricular mass, followed by the injection of fluorescent microspheres to delineate the ischemic region. 15 minutes prior to ligation (pre-occlusion, pre-ischemic episode), a compound from Tables 1-5 was administered to the animals. Doses of the compounds listed in Tables 1-5 ranged from 1-20 mg/kg. The animals were sacrificed about 24 hours after reperfusion and the hearts were excised, sectioned and stained with triphenyltetrazolium. The direct impact of the pharmacologic intervention was determined by measuring the myocardial infarct area (MI), the ischemic area at risk (AR) and the left ventricular area (LV). The reduction of MI over the AR (MI/AR ratio) was used as the primary measure of drug efficacy relative to vehicle controls.
Male Sprague-Dawley rats between 300 and 350 g were used for these experiments. Anesthesia was induced with 3-4% isoflurane in an induction chamber. After induction, anesthesia was maintained at a surgical plane with 1.5-2.0% isoflurane, administered by a Rodent Ventilator through a 16-gauge angiocatheter introduced orally into the trachea. The ventilator was set at 2.5 cc at a rate of 60-65 breaths per minute to maintain ventilation during surgery. The core temperature of the animal was monitored and maintained at 37° C. using a rectal probe and a heating lamp attached to a temperature controller.
A left anterior thoracotomy was performed and the heart was exposed using a vertical pericardotomy. The circumflex branch of the left coronary artery (LCx) was ligated approximately 4 mm from the aorta using a cardiovascular 7.0 monofilament suture on an 11 mm needle to induce ischemia in the left ventricle.
Fluorescent microspheres (300 μL) were injected into the left ventricular cavity 10-20 minutes after the ligation to delineate the ischemic area. The suture was removed 30 minutes after ligation to reperfuse the ischemic area and the ischemic area was checked for reperfusion.
The chest was then closed in layers using absorbable suture (Dexon 5-0) for the muscle layers and monofilament Nylon 5-0 suture was used to close the cutaneous layer. The animals were allowed to recover, then were returned to the colony.
Twenty-four hours after reperfusion, anesthesia was induced using ketamine hydrochloride and the chest was opened. The animals were sacrificed with 15% potassium chloride aqueous solution (w/v) injected into the LV cavity to arrest the heart in diastole. The heart was excised distal to the aortic valve and washed with saline to remove the blood. Sagittal slices of the heart were obtained between the base of the ventricle and the apex. Five slices of heart tissue were obtained, each 2 mm thick. The slices were immersed in a 1% 2,3,5-triphenyl-2H-tetrazolium chloride (TTC) in saline solution and then stored in the dark for 30 minutes to stain.
Images of the slices were obtained under bright field (to observe the TTC staining) and under fluorescence (to observe the microspheres). The area at risk was determined by the absence of microspheres and the infarct area was determined by the absence of TTC staining.

[2] = tested on: PAC rat model of ischemia-induced renal injury; test: Partial aortic clamping (PAC) rat model of ischemia-induced renal injury; type: in vivo; settings: for Reduction of SCr vs. control: serum creatinine 24 hours post-surgery; for serum creatinine concentrations relative to the control animals (in words): administered intravenously
Source text: A partial aortic clamping (PAC) rat model of ischemia-induced renal injury was used as an in vivo screen to determine if RLip-EA-OH (Entry 1), RLip-Cya-OH (Entry 10), RLip-Tau (Entry 13), and RLip-aminoethylphosphonic acid (Entry 15) were renal-protective (e.g., against renal ischemia-reperfusion injury). This model simulates ischemia-reperfusion injury observed in renal patients following ischemia-induced renal failure (Molitoris, B. A., Dagher, P. C., Sandoval, R. M., Campos, S. B., Ashush, H., Fridman, E., Brafman, A. Faerman, A., Atkinson, S. J., Thompson, J. D., Kalinski, H., Skaliter, R., Erlich, S., Feinstein, E. “siRNA Targeted to p53 Attenuates Ischemic and Cisplatin-Induced Acute Kidney Injury.” J Am Soc Nephrol, 2009, vol. 20, 1754-1764, the teachings of which are incorporated herein by reference to their entirety). Serum creatinine concentrations (SCr) typically rise due to renal ischemia and effective treatment should show a reduction in serum creatinine concentrations.
The abdominal aorta just below the renal arteries was isolated and temporarily ligated to induce regional ischemia using an aortic clamp. An initial blood sample was drawn at study initiation for baseline creatinine measurement and at 24 hours post-surgery for functional evaluation of the severity of kidney injury. The animals were sacrificed about 24 hours after reperfusion.
Male Sprague-Dawley rats between 200 to 250 g were used for these experiments. Anesthesia was induced with 5% halothane and maintained with 1-1.5% halothane in oxygen-enriched air via a face mask. The rats were maintained on a warming blanket throughout the procedure to maintain body temperature at 37° C. After shaving the abdomen of the rat, a midline incision was made through the skin and musculature to expose the abdominal cavity to quantify the aortic blood flow (ABF).
Aortic clamps comprised of two 4-mm in length polyethylene tubes (PE-100, 0.86-mm diameter) were then placed around the aorta to induce renal ischemia. One clamp was placed around the aorta and the other was placed to exert variable tension via a 10-in. 3.0 silk suture. The silk thread was then tied and the tension on the two ends of the thread increased until there was a 90% reduction of initial (ABF) rate measured on the ultrasonic probe reader. A 10% baseline blood flow was maintained for a period of 30 minutes.
RLip-EA-OH (Entry 1) at 10 mg/kg; RLip-Cya-OH (Entry 10) at 3 mg/kg; RLip-Tau (Entry 13) at 3 mg/kg; and RLip-aminoethylphosphonic acid at 10 mg/kg, 3 mg/kg, and 1 mg/kg were administered intravenously via the femoral vein as a bolus dose 15 minutes prior to ischemia. A 0.15-mL venous blood sample was drawn at study initiation for baseline creatinine measurement and at 24 hours postsurgery for functional evaluation of the severity of kidney injury. Serum creatinine concentrations were then measured on a Creatinine Analyzer 2. The efficacy of RLip-EA-OH and RLip-Tau were measured against the results of vehicle-treated animals in the blinded studies. A 2-tail t-test was used to determine differences between treatments.

[3] = 10 mg/kg iv bolus 15 minutes prior to ischemia
[4] = 3 mg/kg iv bolus 15 minutes prior to ischemia

Structure (SMILES)	MI/AR Reduction (%) [1] [%]	also measured
O=C(O)CCC(NC(=O)CCCCC1CCSS1)C(=O)O [Entry 9, N-(R)-lipoyl-L-glutamic acid]	33	
O=C(O)CCC(NC(=O)CCCCC1CCSS1)C(=O)NCCS(=O)(=O)O [Entry 4, N-(R)-lipoyl-L-glutamyltaurine]	33	
O=C(CCCCC1CCSS1)NC(CF)C(=O)O [Entry 7, N-(R)-lipoyl-fluoroalanine]	10	
O=C(CCCC[C@@H]1CCSS1)Nc1ccc(C(=O)O)cc1 [Entry 17, N-(R)-lipoyl-para-aminobenzoic acid]	22	
O=C(O)CCNC(=O)CCCC[C@@H]1CCSS1 [Entry 12, N-(R)-lipoyl-β-alanine]	39	
O=C(CCCCC1CCSS1)NCCOP(=O)(O)O [Entry 16, N-(R)-lipoyl-aminoethyl dihydrogenphosphate]	47	
CC(NC(=O)C(CCC(=O)O)NC(=O)CCCCC1CCSS1)C(=O)O [Entry 1, N-(R)-lipoyl-L-glutamyl-L-alanine]	31	Reduction in Cardiac injury ([1]; dose group 10 mg/kg): 33%; Reduction of SCr vs. control [2, 3]: 39.5%; serum creatinine concentrations relative to the control animals (in words) [2]: effectively reduced serum creatinine concentrations
O=C(CCCC[C@@H]1CCSS1)NCCP(=O)(O)O [Entry 15, N-(R)-lipoyl-aminoethylphosphonic acid]	53	Reduction in Cardiac injury ([1]; dose group 1 mg/kg): 30%; Reduction in Cardiac injury ([1]; dose group 3 mg/kg): 50%; Reduction in Cardiac injury ([1]; dose group 10 mg/kg): 32%; Reduction of SCr vs. control ([2]; 1 mg/kg iv bolus 15 minutes prior to ischemia): 28.6%; Reduction of SCr vs. control [2, 4]: 28.6%; Reduction of SCr vs. control [2, 3]: 76.0%; serum creatinine concentrations relative to the control animals (in words) [2]: effectively reduced serum creatinine concentrations
O=C(CCCC[C@@H]1CCSS1)Nc1cccc(S(=O)(=O)O)c1 [Entry 18, N-(R)-lipoyl-meta-aminobenzene sulfonic acid]	33	
CC(NC(=O)C(Cc1ccc(O)cc1)NC(=O)CCCCC1CCSS1)C(=O)O [Entry 3, N-(R)-lipoyl-L-tyrosinyl-L-alanine]	31	
CC(NC(=O)CCCCC1CCSS1)C(=O)NC(CCC(=O)O)C(=O)O [Entry 5, N-(R)-lipoyl-L-alanyl-L-glutamic acid]	24	
O=C(CCCCC1CCSS1)NC(CS(=O)(=O)O)C(=O)O [Entry 10, N-(R)-lipoyl-L-cysteic acid]	30	Reduction in Cardiac injury ([1]; dose group 3 mg/kg): 30%; Reduction of SCr vs. control [2, 4]: 39.5%; serum creatinine concentrations relative to the control animals (in words) [2]: effectively reduced serum creatinine concentrations
O=C(CCCC[C@@H]1CCSS1)NCCS(=O)(=O)O [Entry 13, N-(R)-lipoyl-taurine]		Reduction in Cardiac injury ([1]; dose group 3 mg/kg): 50%; Reduction of SCr vs. control [2, 4]: 39.5%; serum creatinine concentrations relative to the control animals (in words) [2]: effectively reduced serum creatinine concentrations
O=C(CCCCC1CCSS1)NC(Cc1ccc(C(=O)O)cc1)C(=O)O [Entry 6, N-(R)-lipoyl-L-4-carboxyphenylalanine]	26	
O=C(CCCC[C@@H]1CCSS1)Nc1ccc(S(=O)(=O)O)cc1 [Entry 19, N-(R)-lipoyl-para-aminobenzene sulfonic acid]	44	
O=C(O)CN(CC(=O)O)C(=O)CCCC[C@@H]1CCSS1 [Entry 11, N-(R)-lipoyliminodiacetic acid]	21	
O=C(CCCCC1CCSS1)NC(Cc1ccc(O)cc1)C(=O)O [Entry 8, N-(R)-lipoyl-L-tyrosine]	29	
O=C(O)CNC(=O)C(CC(=O)O)NC(=O)CCCCC1CCSS1 [Entry 2, N-lipoyl-L-aspartylglycine]	28	
O=C(CCCCC1CCSS1)NCCOS(=O)(=O)O [Entry 14, N-(R)-lipoyl-aminoethyl hydrogensulfate]	30	
